Patent US11279733B2, “Peptide antibiotics” (priority 2017, dated 2022)
Values after ≈ are worked out from the molar mass of the structure shown. Positions of bridges follow the written chain, without caps; N, C: chain ends. Non-standard residues stand in square brackets, D forms with d. Residues, ends and D or L forms follow the SMILES beside them. *: point of attachment. Decanoyl(3R-OH) = CCCCCCC[C@@H](O)CC(=O)*; dPhe(3-Cl) = N[C@H](Cc1cccc(Cl)c1)C(=O)O; hPhe = N[C@@H](CCc1ccccc1)C(=O)O; dDab = NCC[C@@H](N)C(=O)O; dDap = NC[C@@H](N)C(=O)O; Dab = NCC[C@H](N)C(=O)O

Tests used:
[1] = tested on: A. baumannii ATCC 19606; conditions: ATCC 19606
In short: (§1)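 Mid-log cultures grown in Mueller Hinton broth at 37° C were tested by 2-fold broth microdilution at 5×10^5 CFU/mL final. Compounds were dissolved in water and tested over a final range of 32 to 0.015 μg/mL.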

[2] = tested on: A. baumannii GN_093 PmxR; conditions: GN 093 PmxR
In short: as §1

[3] = tested on: E. coli ATCC 25922; conditions: ATCC 25922
In short: as §1

[4] = tested on: K. pneumoniae ATCC 13883; conditions: ATCC 13883
In short: as §1

[5] = tested on: K. pneumoniae ATCC 700603, MDR; conditions: ATCC 700603
In short: as §1

[6] = tested on: K. pneumoniae ATCC BAA-2146, NDM-1 pos; conditions: ATCC BAA-2146
In short: as §1

[7] = tested on: K. pneumoniae GN_102 PmxR; conditions: GN 102 PmxR
In short: as §1

[8] = tested on: K. pneumoniae GN_106, PmxR; conditions: GN 106, PmxR
In short: as §1

[9] = tested on: P. aeruginosa ATCC 27853; conditions: ATCC 27853
In short: as §1

[10] = tested on: P. aeruginosa GN_043, PmxR; conditions: polymyxin-resistant
In short: as §1

[11] = tested on: P. aeruginosa GN_105, PmxR; conditions: GN 105, PmxR
In short: as §1

[12] = tested on: S. aureus ATCC 25923, MSSA; conditions: ATCC 25923
In short: as §1

[13] = in vitro; conditions: human
In short: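 Cells were seeded at 4000 per well and allowed to attach for 24 h at 37 °C, 5% CO2, then exposed to compounds for 24 h. Resazurin (5 μM) was added for 2 h at 37 °C and fluorescence read at 560/590 nm. CC50 was derived by curve fitting of dose-dependent growth inhibition.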

[14] = tested on: Neisseria gonorrhoeae; test: MIC determination, Neisseria gonorrhoeae; assay type: cell-based; conditions: strain FA19 ATCC BAA-1838
Procedure: Bacteria were either obtained from American Type Culture Collection (ATCC; Manassas, Va., USA) or independent academic clinical isolate collections, as listed in Table 18 below. Bacteria were cultured in Nutrient broth (NB; Bacto Laboratories, catalogue No. 234000) or Mueller Hinton broth (MHB; Bacto Laboratories, catalogue No. 211443) at 37° C. overnight with shaking (˜180 RPM). A sample of each culture was then diluted 50-fold in fresh MHB and incubated at 37° C. for 2-3 h with shaking (˜180 RPM). Compound stock solutions were prepared as 0.64 mg/mL or 2.56 mg/mL in water. The compounds, at twice the final desired concentration, were serially diluted 2-fold across the wells of 96-well plates (Polystyrene, Corning, catalogue No. 3370). Mid-log phase bacterial cultures (after 2-3 h incubation) were diluted to a final concentration of 1×10^6 colony forming units (CFU)/mL, and 50 μL was added to each well giving a final cell density of 5×10^5 and a compound concentration range of 32 μg/mL to 0.015 μg/mL (128-0.06 μg/mL against P. aeruginosa PA9704).

Structure (SMILES)	MIC A. baumannii ATCC 19606 [1] [µg/mL]	MIC A. baumannii GN_093 PmxR [2] [µg/mL]	MIC E. coli ATCC 25922 [3] [µg/mL]	MIC K. pneumoniae ATCC 13883 [4] [µg/mL]	MIC K. pneumoniae ATCC 700603, MDR [5] [µg/mL]	MIC K. pneumoniae ATCC BAA-2146, NDM-1 pos [6] [µg/mL]	MIC K. pneumoniae GN_102 PmxR [7] [µg/mL]	MIC K. pneumoniae GN_106, PmxR [8] [µg/mL]	MIC P. aeruginosa ATCC 27853 [9] [µg/mL]	MIC P. aeruginosa GN_043, PmxR [10] [µg/mL]	MIC P. aeruginosa GN_105, PmxR [11] [µg/mL]	MIC S. aureus ATCC 25923, MSSA [12] [µg/mL]	CC50 at 24 h [13] [µM]	MIC N. gonorrhoeae FA19 ATCC BAA-1838 [14] [µg/mL]	further results
CCCCCCC[C@@H](O)CC(=O)N[C@H](CCN)C(=O)N[C@H]1CCNC(=O)[C@H](CCc2ccccc2)NC(=O)[C@H](CCN)NC(=O)[C@H](CCN)NC(=O)[C@H](CC(C)C)NC(=O)[C@@H](Cc2ccccc2)NC(=O)[C@H](CCN)NC1=O [compound 8913, 3(R)OH-nC9CO-D-Dab-cyc[L-Dab-L-Dab-D-Phe-L-Leu-L-Dab-L-Dab-L-hPhe]] ({Decanoyl(3R-OH)}-[dDab][Dab][Dab][dF]L[Dab][Dab][hPhe]; lactam 2-C)	8 (≈ 7.32 µM)	4 (≈ 3.66 µM)	2 (≈ 1.83 µM)	4 (≈ 3.66 µM)	4 (≈ 3.66 µM)	4 (≈ 3.66 µM)	2 (≈ 1.83 µM)	2 (≈ 1.83 µM)	2 (≈ 1.83 µM)	4 (≈ 3.66 µM)	2 (≈ 1.83 µM)	4 (≈ 3.66 µM)	32	1.56 (≈ 1.43 µM)	–
CCCCCCC[C@@H](O)CC(=O)N[C@H](CCN)C(=O)N[C@H]1CCNC(=O)[C@H](Cc2c[nH]c3ccccc23)NC(=O)[C@H](CCN)NC(=O)[C@H](CCN)NC(=O)[C@H](CC(C)C)NC(=O)[C@@H](Cc2cccc(Cl)c2)NC(=O)[C@H](CCN)NC1=O [compound 8914, 3(R)OH-nC9CO-D-Dab-cyc[L-Dab-L-Dab-D-Phe(3-Cl)-L-Leu-L-Dab-L-Dab-L-Trp]] ({Decanoyl(3R-OH)}-[dDab][Dab][Dab][dPhe(3-Cl)]L[Dab][Dab]W; lactam 2-C)	4 (≈ 3.47 µM)	4 (≈ 3.47 µM)	2 (≈ 1.74 µM)	2 (≈ 1.74 µM)	2 (≈ 1.74 µM)	4 (≈ 3.47 µM)	4 (≈ 3.47 µM)	4 (≈ 3.47 µM)	2 (≈ 1.74 µM)	4 (≈ 3.47 µM)	1 (≈ 0.868 µM)	2 (≈ 1.74 µM)	25	0.78 (≈ 0.677 µM)	–
CCCCCCC[C@@H](O)CC(=O)N[C@H](CN)C(=O)N[C@H]1CCNC(=O)[C@H](CC(C)C)NC(=O)[C@H](CCN)NC(=O)[C@H](CO)NC(=O)[C@H](CC(C)C)NC(=O)[C@@H](Cc2ccccc2)NC(=O)[C@H](CCN)NC1=O [compound 9193, 3(R)-OH-nC9CO-D-Dab-cyc[L-Dab-L-Dab-L-Leu-D-Phe-L-Dab-L-Dab-L-Leu]] ({Decanoyl(3R-OH)}-[dDap][Dab][Dab][dF]LS[Dab]L; lactam 2-C)	–	–	–	–	–	–	–	–	–	–	–	–	> 300	25 (≈ 24.6 µM)	MIC, A. baumannii ATCC 19606 [1]: 32 µg/mL (≈ 31.5 µM); MIC, A. baumannii Cl Ptyela 10073 4512:2, PmxR [2]: >32 µg/mL; MIC, E. coli ATCC 25922 [3]: >32 µg/mL; MIC, K. pneumoniae ATCC 13883 [4]: >32 µg/mL; MIC, K. pneumoniae ATCC 700603, MDR [5]: >32 µg/mL; MIC, K. pneumoniae ATCC BAA-2146, NDM-1 pos [6]: >32 µg/mL; MIC, K. pneumoniae Cl Koprana 10065 0661:1, PmxR [7]: >32 µg/mL; MIC, K. pneumoniae Cl 138-16347-20362, PmxR [8]: >32 µg/mL; MIC, P. aeruginosa ATCC 27853 [9]: 32 µg/mL (≈ 31.5 µM); MIC, P. aeruginosa FADDI-PA070, PmxR ([10]; Table 5): >32 µg/mL; MIC, P. aeruginosa PA9704, PmxR [11]: >32 µg/mL; MIC, S. Aureus ATCC 25923, MSSA [12]: >32 µg/mL
